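Tested at 5 concentrations; 48 h exposure; 96-well plates; endpoints linearly interpolated, else capped at highest concentration. At the GI50, growth is halved. TGI marks complete inhibition of growth.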
What was measured:
Assay in all cases: NCI tumour cell line growth inhibition, 48 h
COLO 205 colon = test system: COLO 205 colon
LXFL 529 NSCLC = test system: LXFL 529 NSCLC
M14 melanoma = test system: M14 melanoma
OVCAR-5 ovarian = test system: OVCAR-5 ovarian
SF-295 CNS = test system: SF-295 CNS
SN12C renal = test system: SN12C renal
SNB-78 CNS = test system: SNB-78 CNS
DU-145 prostate = test system: DU-145 prostate
PC-3 prostate = test system: PC-3 prostate
T-47D breast = test system: T-47D breast

Structure (SMILES) | TGI (COLO 205 colon) | TGI (LXFL 529 NSCLC) | TGI (M14 melanoma) | TGI (OVCAR-5 ovarian) | TGI (SF-295 CNS) | TGI (SN12C renal) | TGI (SNB-78 CNS) | GI50 (DU-145 prostate) | TGI (DU-145 prostate) | GI50 (M14 melanoma) | GI50 (PC-3 prostate) | TGI (PC-3 prostate) | GI50 (T-47D breast) | TGI (T-47D breast) | GI50 (COLO 205 colon) | GI50 (OVCAR-5 ovarian) | GI50 (SF-295 CNS) | GI50 (SN12C renal)
CCOC(=O)Cc1csc(Nc2ccccc2[N+](=O)[O-])n1 | > 100 µM | > 100 µM | > 100 µM | > 100 µM | > 100 µM | > 100 µM | > 100 µM |  |  |  |  |  |  |  |  |  |  | 
Cc1nc2c(N)ncnc2o1 | > 100 µM | > 100 µM | > 100 µM | > 100 µM | > 100 µM | > 100 µM | > 100 µM |  |  |  |  |  |  |  |  |  |  | 
O=c1[nH]c(=O)n(C2CC(O)C(CO)O2)cc1OS(=O)(=O)C(F)(F)F (centres undefined) | > 100 µM | > 100 µM | > 100 µM | > 100 µM | > 100 µM | > 100 µM |  |  |  |  |  |  |  |  |  |  |  | 
CC1=C(C(=O)Nc2ccccc2)C(c2ccc(Cl)c(Cl)c2)C(C(=O)Nc2ccccc2)=C(C)N1 | 29.4 µM | 25.6 µM | 25.1 µM | 32.4 µM | 25.5 µM | 28.5 µM | 53.8 µM |  |  |  |  |  |  |  |  |  |  | 
Nc1nc(Cl)nc2c1ncn2C1CC(O)C(CO)O1 (centres undefined) | > 100 µM |  | 0.509 µM | > 100 µM | 99.9 µM | > 100 µM | > 100 µM | 1.81 µM | > 100 µM | 0.186 µM | > 100 µM | > 100 µM | 5.75 µM | > 100 µM |  |  |  | 
Cc1cc(C)nc(NS(=O)(=O)c2ccc(Nc3c4ccccc4nc4c(C(=O)N5CCN(CCO)CC5)cccc34)cc2)n1 | > 100 µM | > 100 µM | > 100 µM | > 100 µM | > 100 µM | > 100 µM | > 100 µM |  |  |  |  |  |  |  |  |  |  | 
CCOC(=O)C(Br)=C1OC(=O)c2ccccc2-c2ccccc21 (mixture of isomers) | 32.9 µM | 26.5 µM | 37.1 µM | 42.6 µM | 54.4 µM | 56.4 µM | 52.3 µM |  |  |  |  |  |  |  |  |  |  | 
COC(=O)c1c(C)cc(OC)c(C/C=C(\C)CCCc2coc(C=C(C)C)c2)c1OC | > 100 µM |  | > 100 µM | > 100 µM | > 100 µM | > 100 µM |  |  | > 100 µM |  |  | > 100 µM |  | > 100 µM |  |  |  | 
CCOc1ccc(OCC(=O)O)c2c1CCCC2=O | > 100 µM | > 100 µM | > 100 µM | > 100 µM | > 100 µM | > 100 µM | > 100 µM |  |  |  |  |  |  |  |  |  |  | 
O=C1C/C(Br)=C\c2ccccc2-c2ccccc21 | 12.4 µM | 3.5 µM | 5.27 µM | 6.06 µM | 16.9 µM | 4.8 µM | 16.9 µM |  |  |  |  |  |  |  |  |  |  | 
c1ccc2c(c1)CCc1c(-c3ccncc3)n[nH]c1-2 | 63.3 µM | 66.2 µM | 47.9 µM | > 100 µM | > 100 µM | > 100 µM | > 100 µM |  |  |  |  |  |  |  |  |  |  | 
CCOC(=O)c1c(C)c2c(n1Cc1ccccc1)CSCC2=O | 48.8 µM |  | 56.3 µM | 89.1 µM | 49.5 µM | > 100 µM |  | 21.9 µM | > 100 µM | 20 µM | 13.6 µM | 68.1 µM | 7.04 µM | 45.3 µM | 20.3 µM | 20.9 µM | 18 µM | 26 µM
COc1cc(C[P+](c2ccccc2)(c2ccccc2)c2ccccc2)cc(OC)c1OC | > 100 µM | > 100 µM | > 100 µM | > 100 µM | > 100 µM | > 100 µM | > 100 µM |  |  |  |  |  |  |  |  |  |  | 
CCCCCCCCCCCC[N+]12CC[N+](CCN)(CC1)CC2 | > 100 µM | > 100 µM | > 100 µM | 38.1 µM | > 100 µM | > 100 µM | > 100 µM |  |  |  |  |  |  |  |  |  |  | 
C/C(=N\NC(N)=O)c1sc(-c2nc(C)c(/C(C)=N/NC(N)=O)s2)nc1C | > 100 µM | > 100 µM | > 100 µM | > 100 µM | > 100 µM | > 100 µM | > 100 µM |  |  |  |  |  |  |  |  |  |  | 
NNc1ncnc2nc[nH]c12 | 18.7 µM |  | > 100 µM | > 40.4 µM | > 72.6 µM | > 100 µM |  | 3.29 µM | 67.8 µM | 2.76 µM | 6.07 µM | > 100 µM | 3.67 µM | > 100 µM | 2.56 µM | 3.18 µM | 3.95 µM | 7.33 µM
CC(C)C1CN(C(=O)OCc2ccccc2)C2N1C(=O)C2(C)OCc1ccccc1 (centres undefined) | 37.2 µM | > 100 µM | > 100 µM |  | > 100 µM | > 100 µM |  |  |  |  |  |  |  |  |  |  |  | 
NCCCn1c2c(c3ccc([N+](=O)[O-])cc3c1=O)C(=O)c1cc(I)ccc1-2 | 2.44 µM |  | 1.32 µM | 1.95 µM | 1.53 µM | 1.78 µM |  | < 0.01 µM | 0.118 µM | 0.0315 µM | 0.563 µM | 2.07 µM | 0.0446 µM | 2.08 µM | 1.02 µM | 0.556 µM | < 0.0218 µM | < 0.0234 µM
NC(N)=Nc1nc2ccccc2o1 | > 100 µM |  | > 100 µM | > 100 µM | > 100 µM | > 100 µM |  | > 100 µM | > 100 µM | > 100 µM | > 100 µM | > 100 µM | > 100 µM | > 100 µM | > 100 µM | > 100 µM | > 100 µM | > 100 µM
N#CC(I)CS(=O)(=O)c1ccccc1 (centres undefined) | 3.86 µM |  | 28.4 µM | 33.6 µM | > 100 µM | 29.9 µM |  | 17.2 µM | 31.3 µM | 14.6 µM | 17 µM | 32.5 µM | 18.4 µM | 42.6 µM | 2.03 µM | 18.9 µM | > 100 µM | 16.1 µM
COc1cc2c3c(n(C)c(=O)c2cc1OC)-c1cc2c(cc1C3=O)OCO2 | > 100 µM |  | > 100 µM | > 100 µM | > 61.3 µM | > 100 µM |  |  | > 100 µM |  |  | > 100 µM |  | 57.3 µM |  |  |  | 
CN1Nc2ccccc2CC1=O | > 100 µM |  | > 100 µM | > 100 µM | > 100 µM | > 100 µM | > 100 µM |  |  |  |  |  |  |  |  |  |  | 
COC(=O)C1=CN(CC2=CC(=O)C(C)=CC2=O)C=C(C(=O)OC)C1c1ccccc1OC | 38.2 µM |  | 32.7 µM | 34.9 µM | > 55.5 µM | 32.9 µM |  | 16.8 µM | 31.3 µM | 17.3 µM | 14.9 µM | 29.8 µM | 52.8 µM | > 100 µM | 18.9 µM | 19.7 µM | 24.3 µM | 14.8 µM

From PubChem BioAssay (NCI)
